By IC50 is commonly meant the point on the concentration scale where inhibition reaches its midpoint. In general, EC50 refers to the concentration at which the effect is half-maximal.

Read-outs that look alike come from different tables or passages of the source.

Results on eight compounds are retold here after patent US20230151432A1, “KIF18A INHIBITORS FOR TREATMENT OF NEOPLASTIC DISEASES” (AMGEN INC., priority 2020, published 2023).

Data set [1] deals with T1, Recombinant human KIF18A (1-467 His-tagged) protein (Homo sapiens, UniProt Q8NI77).
T1 construct: Recombinant human KIF18A (1-467 His-tagged) protein; His; made in house
Kind of data set: KIF18A Enzyme Assay (microtubule-stimulated ATPase activity, ADP-Glo). The format is biochemical. To be noted: 30 nM KIF18A, 75 μM ATP. How it is done:
KIF18A Enzyme Assay: Microtubule-stimulated ATPase activity assay was used to measure KIF18A enzyme activity after treatment with compound. Compounds were 2-fold serially diluted in DMSO (Sigma Inc) over 22-point concentration range. […] The assay measures ADP formed from the ATPase reaction.
Concentration-response curve-fitting and IC50 determination was performed using Genedata Screener Software (Standard 15.0.1, Genedata Inc) with a four-parameter logistic regression fit model.

For data set [2], the system named is OVCAR-8 NCI/ADR-RES cells. Kind of data set: Nuclear count assay in multidrug resistant cells, with or without P-gp inhibitor. The format is cell-based, human. To be noted: 4-day NCA; for EC50: Homo sapiens, 96 h, read-out: EC50 (Count POC). How it is done: Compound was added to the cells with a final volume of 200 μL in complete media containing 0.5% DMSO.
The plates were sealed and incubated for 1 hour at room temperature in the dark. Cells were stored at 4° C. in the dark until data acquisition. […] The Total Valid Object Count was represented as a Count POC (Percentage of DMSO Control) using the following formula:
Briefly, OVCAR-8 cells were seeded in duplicate in a Corning 96-well Flat Clear Bottom Black Polystyrene plates (Corning, N.Y.) in 100 μL of appropriate complete media at the appropriate density and grown for 24 hours. […] After 4 days (96 hours) of treatment, the cells were fixed by removing 100 μL of complete media from each well and replacing it with 100 μL of 2×formaldehyde (final 4%) and incubating the plates for 15 minutes at room temperature. […] The plates were sealed and incubated for 1 hour at room temperature in the dark. Cells were stored at 4° C. in the dark until data acquisition. […] The Total Valid Object Count was represented as a Count POC (Percentage of DMSO Control) using the following formula:
Count POC=(Total Valid Object Count in treated well)[…](Total Valid Object Count in DMSO treated wells)×100
Compound concentration and Count POC values were plotted using GraphPad Prism software (V7.0.4) and curve-fitting was performed with 4-parameter equation (variable slope). The concentration-response curves and standard deviation represent two independent experiments run in duplicate.

Data set [3] has as its system human bone marrow mononuclear cells (HBMNC). Briefly: BrdU cell cycle analysis and live cell count in normal cells. The format is cell-based. How it is done: (§1) The effect KIF18A inhibitor treatment has on proliferation of normal somatic cells (e.g., not neoplastic cells) was tested by assaying proliferation of human bone marrow mononuclear cells (HBMNCs), primary human foreskin fibroblast cells (hFSF) and human mammary epithelial cells via a 5-bromo-2′-deoxyuridine (BrdU) incorporation assay in which BrdU, an analog of the nucleoside thymidine, is used to identify proliferating cells (Payton et. al., Molecular Cancer Therapeutics, 17(12):2575-85 (2018)). Cells were analyzed on BD LSRFortessa flow cytometer using BD FACSDiva software (BD Biosciences), and post-acquisition data analysis was performed using FSC-Express software (De Novo). The percentage of BrdU positive gated events on the stacked DNA content histograms were reported.
To further examine the effects of KIF18A inhibitor treatment on HBMNC, two normal donors were assessed using the BrdU coupled cell cycle assay and cell count assay (96 hours) was. […] In particular, the amount of BrdU-stained proliferating cells treated with Ispinesib, paclitaxel, or a CDK 4/6 inhibitor (palbociclib) was far less than the amount of vehicle control-treated BrdU-stained cells. […] KIF18A inhibitor treatment was also analyzed for impact on live cell count. After 96 hours, live cells were counted by Vi-CELL XR Cell Viability Analyzer (Beckman Coulter).
To investigate whether KIF18A inhibitors could circumvent this normal cell toxicity barrier, we examined the effects of Compounds C9 and C11 on a panel of cycling normal somatic cell types. First, we treated human bone marrow mononuclear cells (HBMNC) from two normal donors with DMSO, Compound C9 and C11 at 1 μM, ispinesib at 0.05 μM, paclitaxel at 0.05 μM, or palbociclib at 1 μM for 48 h (cell cycle) or 96 h (cell growth).
BrdU and cell cycle analysis. Human bone marrow mononuclear cells (HBMNCs) from two normal donors (#37612, #37534) were cultured for 8 days in defined media as previously described (Payton et al 2018). HBMNCs were seeded in 24-well plate at 1.2×10^6 cells per well in duplicate plates. Cells were treated with DMSO, Compound C9 (1 μM), Compound C11 (1 μM), ispinesib (0.05 μM), paclitaxel ([…]), or palbociclib (1 μM). Cells were collected at 48 h (cell cycle) and 96 h (cell growth). The first set of plates were pulsed with BrdU for 2 h and processing for BrdU cell cycle analysis as previously described (Payton et al 2018). Cells were analyzed on BD LSRFortessa flow cytometer running BD FACSDiva software and post-acquisition data analysis was performed using FSC-Express software. Data was reported for the percentage of BrdU and subG1 gated populations. The second set of plates were collected, and cells counted using Vi-CELL XR Cell Viability Analyzer (Beckman Coulter).

Data set [4] has as its system human mammary epithelial cells (HMEC). Kind of data set: BrdU incorporation assay in normal cells. The format is cell-based. Conditions: 48 hours. As to the method:
as §1

The subject of data set [5] is human foreskin fibroblast (hFSF) cells. Briefly: BrdU incorporation assay in normal cells. It is filed as cell-based. To be noted: 48 hours. How it is done:
as §1
(Dividing cells build labelled thymidine or BrdU into new DNA.)

T1 sequence (Q8NI77 1-467): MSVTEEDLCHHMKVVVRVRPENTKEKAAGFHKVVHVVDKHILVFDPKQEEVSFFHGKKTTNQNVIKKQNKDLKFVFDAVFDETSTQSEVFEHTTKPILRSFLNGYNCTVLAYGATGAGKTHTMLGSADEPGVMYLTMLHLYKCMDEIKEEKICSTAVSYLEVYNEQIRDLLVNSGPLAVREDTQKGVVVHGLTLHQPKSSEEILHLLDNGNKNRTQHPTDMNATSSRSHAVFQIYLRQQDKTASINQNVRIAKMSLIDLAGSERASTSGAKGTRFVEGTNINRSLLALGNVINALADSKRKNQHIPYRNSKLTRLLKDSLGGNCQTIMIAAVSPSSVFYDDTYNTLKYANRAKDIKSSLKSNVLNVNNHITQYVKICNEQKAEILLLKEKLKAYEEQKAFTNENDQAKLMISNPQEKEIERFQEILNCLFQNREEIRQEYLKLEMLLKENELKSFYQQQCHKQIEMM
T1 sequence (P02550 whole entry partner): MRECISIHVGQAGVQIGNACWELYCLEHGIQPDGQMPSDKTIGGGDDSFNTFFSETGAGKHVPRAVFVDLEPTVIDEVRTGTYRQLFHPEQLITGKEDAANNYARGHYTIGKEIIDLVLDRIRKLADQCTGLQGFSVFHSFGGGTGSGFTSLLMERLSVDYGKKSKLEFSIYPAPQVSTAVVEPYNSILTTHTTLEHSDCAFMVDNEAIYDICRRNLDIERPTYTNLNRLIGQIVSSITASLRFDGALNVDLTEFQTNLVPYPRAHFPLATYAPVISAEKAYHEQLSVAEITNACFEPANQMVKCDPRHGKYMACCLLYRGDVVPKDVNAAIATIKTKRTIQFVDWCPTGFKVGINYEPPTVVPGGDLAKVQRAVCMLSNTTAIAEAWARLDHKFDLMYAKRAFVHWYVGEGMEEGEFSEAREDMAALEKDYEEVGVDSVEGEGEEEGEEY
T1 sequence (P02554 whole entry partner): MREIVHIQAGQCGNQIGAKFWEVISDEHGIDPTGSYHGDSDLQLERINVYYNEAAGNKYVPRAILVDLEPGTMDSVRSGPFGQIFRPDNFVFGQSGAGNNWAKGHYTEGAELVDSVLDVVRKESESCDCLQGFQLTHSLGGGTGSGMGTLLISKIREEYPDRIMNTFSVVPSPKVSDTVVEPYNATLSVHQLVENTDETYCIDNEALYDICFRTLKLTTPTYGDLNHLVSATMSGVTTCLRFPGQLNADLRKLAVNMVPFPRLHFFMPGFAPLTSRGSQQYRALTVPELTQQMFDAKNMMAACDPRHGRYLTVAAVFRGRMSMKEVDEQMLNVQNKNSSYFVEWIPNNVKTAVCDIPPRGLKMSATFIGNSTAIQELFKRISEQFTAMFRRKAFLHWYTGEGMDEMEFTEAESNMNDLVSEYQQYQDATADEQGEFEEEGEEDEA

Regarding `Cc1cc(NC(=O)c2ccc([S@](=N)(=O)C3CC3)cc2N2CCC3(CC2)CC3)nc(N2CCC(F)(F)CC2)n1` (single isomer, unassigned) [Compound C1, 2-(6-Azaspiro[2.5]octan-6-yl)-4-(R-cyclopropylsulfonimidoyl)-N-(2-(4,4-difluoro-1-piperidinyl)-6-methyl-4-pyrimidinyl)benzamide], the 50% inhibitory concentration (IC50) in data set [1] is 64 nM.
Still for that read-out and setting: next, `Cc1cc(NC(=O)c2ccc(S(=N)(=O)C3CC3)cc2N2CCC3(CC2)CC3)nc(N2CCC(F)(F)CC2)n1` (single isomer, unassigned) [Compound C2, 2-(6-azaspiro[2.5]octan-6-yl)-4-(S-cyclopropylsulfonimidoyl)-N-(2-(4,4-difluoro-1-piperidinyl)-6-methyl-4-pyrimidinyl)benzamide]: 57 nM; `Cc1cc(NC(=O)c2ccc(NS(=O)(=O)[C@H](C)CO)cc2N2CCC3(CC2)CC3)nc(N2CCC(F)(F)CC2)n1` (single isomer, unassigned) [Compound C5]: 62 nM; `Cc1cc(NC(=O)c2ccc(NS(=O)(=O)[C@@H](C)CO)cc2N2CCC3(CC2)CC3)nc(N2CCC(F)(F)CC2)n1` (single isomer, unassigned) [Compound C6]: 70 nM.
For the compound `CC(C)(C)NS(=O)(=O)c1cccc(NC(=O)c2ccc(S(=O)(=O)C3(C)COC3)cc2N2CCC3(CC2)CC3)c1` [Compound C8, N-(3-(N-(tert-Butyl)sulfamoyl)phenyl)-4-((3-methyloxetan-3-yl)sulfonyl)-2-(6-azaspiro[2.5]octan-6-yl)benzamide], in data set [1], the IC50 came to 61 nM.
Still for that read-out and setting: the result for `CC(C)(C)NS(=O)(=O)c1cccc(NC(=O)c2ccc(NC(C)(C)CO)nc2N2CCC3(CC2)CC3)c1` [Compound C10, N-(3-(N-(tert-Butyl)sulfamoyl)phenyl)-6-((1-hydroxy-2-methylpropan-2-yl)amino)-2-(6-azaspiro[2.5]octan-6-yl)nicotinamide] reads 70 nM.
As to `CC(=O)O[C@H]1C(=O)[C@@]2(C)[C@H]([C@H](OC(=O)c3ccccc3)[C@]3(O)C[C@H](OC(=O)[C@H](O)[C@@H](NC(=O)c4ccccc4)c4ccccc4)C(C)=C1C3(C)C)[C@]1(OC(C)=O)CO[C@@H]1C[C@@H]2O` [Paclitaxel], in data set [2] (GF120918 1 μM), the “fold change in potency in the presence vs in the absence of the P-gp inhibitor” value is listed as “greater than 500 fold”. Also, the EC50 in data set [2] (absence of the P-gp inhibitor) is over 1000 nM; in data set [2] (presence of P-gp inhibitor GF120918 (1 μM)) it was 1.7 nM. In addition, the “live cell count relative to vehicle control” value in data set [3] was “lower cell count”.
`CC(=O)c1c(C)c2cnc(Nc3ccc(N4CCNCC4)cn3)nc2n(C2CCCC2)c1=O` [Palbociclib]: the “live cell count relative to vehicle control” value in data set [3] was “lower cell count”. The “BrdU incorporation relative to DMSO treated cells” value in data set [4] and in data set [5] was “decrease in BrdU incorporation” throughout.
